Source: patent publication US20250282720A1, “ALKYLSULFENYL THIOCARBONATES: PRECURSORS TO HYDROPERSULFIDES POTENTLY ATTENUATE OXIDATIVE STRESS” (The Johns Hopkins University, priority 2021, published 2025)

How the values were obtained:
H9c2 cardiac myoblasts [1] = experiment: H9c2 cell protection from H2O2-mediated oxidative stress, CCK-8; assay type: cell-based, rat; conditions: 50 μM, 4 and 8 h, then H2O2 200 μM
Method: The cytoprotective effects of 1a was then measured against oxidative stress.
(§2) H9c2 embryonic rat heart myoblasts were obtained from the American Type Culture Collection. Cells were grown in Dulbecco's minimal essential medium (DMEM), supplemented with fetal bovine serum (FBS) 10%, penicillin 100 U/mL and streptomycin 100 μg/mL. They were propagated in T75-flasks, split before reaching 70-80% confluence (usually every day or every second day), and used within 11 passages. Cells were passaged to tissue culture treated 96-well microtiter plates at the specified density in 180 μL volumes and incubated for 24 h.
Cells were seeded at a density of 5×10^3 cells/well. After 24 h, precursor 1a or by-product 4a was added at 20 μL volumes using DMSO:H2O (<0.01% DMSO as the vehicle). Cells were incubated for 2 h before media was removed and the cells gently washed with PBS (pH 7.4). Then, 180 μL of fresh media and 20 μL H2O2 diluted into H2O were added and cells were incubated for an additional 2 h. At the completion of H2O2 exposure, each well is carefully washed 3 times with PBS (pH 7.4) before adding 100 μL of media, without-FBS, containing 10% v/v CCK-8 (Dojindo) and incubated for 3 h prior to obtaining absorbance values at 450 nm. The relative % viability was calculated as 100 times the ratio of the Abs450 (pre-treated, H2O2-exposed) over Abs450 (vehicle-treated, non H2O2-exposed).

[2] = tested on: FA skin fibroblasts (GM04078); experiment: Cytotoxicity in FA skin fibroblasts; conditions: 24 h of exposure, at least up to 100 μM
Description: (§1) Initially, we measured the cytotoxicity of AST in FA skin fibroblasts (GM04078), obtained from the Coriell Institute, to ensure that the RSSH donor itself is not cytotoxic. […] We then measured the ability of AST to confer cytoprotection in FA fibroblasts against hydrogen peroxide (H2O2) stress.

FA fibroblasts (GM04078) = experiment: Cytoprotection against H2O2 stress in FA fibroblasts, CCK8; assay type: cell-based, human; conditions: 4 h pretreatment, H2O2 75 μM for 4 h
Method: FIG. 10A, pretreatment of AST with varying concentrations in FA fibroblasts (GM04078, Coriell Institute) for 4 h followed by 4 h treatment with H2O2. Viability was measured using CCK8 assay. FIG. 10B, pretreatment of AST with varying concentrations in FA fibroblasts for 4 h followed by treatment with erastin for 24 h. […] Group comparisons are determined by a one-way analysis of variance (ANOVA) with Dunnet's correction post-hoc test using GraphPad Prism 8;
as §1

H9c2 cardiac myoblasts [3] = experiment: Cytotoxicity study, Sytox Green viability assay; conditions: up to 100 mM, 24 h
Method: as §2
Cells were seeded at a density of 1×10^4 cells/well. After 24 h, the media was replaced and compound added in 20 μL volumes using DMSO:H2O (<0.01% DMSO) as the vehicle. Cells were incubated for an additional 24 h before media was removed. Then, 100 μL of media containing 3 μM Sytox Green nucleic acid stain (Invitrogen) was added and the cells were incubated for 2 h before fluorescence readings were obtained at 485Ex/538Em (Step 1). Finally, an additional 100 μL of media containing 3 μM Sytox and 0.2% Triton X-100 was added to permeabilize all cells and incubated for 1 h before fluorescence values measured (Step 2). The relative % cells surviving was calculated as a 100% minus the ratio of the fluorescence value of Step 1 over Step 2 (% cells surviving=100%−(FL538 (Step 1)/FL538 (Step 2)). See FIG. 8.

[4] = Decomposition of precursors in the presence of thiol (NAC / N-acetyl cysteine methyl ester), HPLC; assay type: physicochemical; conditions: 5 equiv NAC, PBS pH 7.4, HPLC
Method: Initially, the decomposition of 1a was analyzed in the presence of 5 equiv of N-acetylcysteine (NAC) in PBS (pH 7.4) by HPLC. […] To investigate the mechanism, this reaction was monitored by UPLC-MS. […] Additionally, a small amount of unsymmetrical dialkyl polysulfide (pink highlight, R^1SSnSR^2, n=0-3) is observed, likely formed via NAC reaction with symmetrical dialkyl polysulfides (Scheme 1-5, eq. 7). As expected, a new peak at 5.65 min corresponding to N-acetyl cysteine-thiocarbonate 9a also is observed, confirming thiol attack at the perthiocarbonate carbonyl carbon of 1a to release RSSH. Due to the unstable nature of RSSH under these experimental conditions, the yield of the by-product 9a was measured as an indication of RSSH yield. The observation of RSSH-derived polysulfides formation as major products led us to anticipate the efficient formation of by-product 9a. […] The lower observed yield of 9a is likely due to its further reaction with RSSH under these conditions. […]
To a solution of N-acetyl cysteine methyl ester (500 μM) in pH 7.4 phosphate buffer saline (100 mM) containing DTPA (100 μM), precursor 1a or 8 (100 μM) was added. […] At different time points, an aliquot of the reaction mixture (500 μL) was withdrawn and transferred to pre-cooled 0.1% formic acid (500 μL) and analyzed using HPLC. […]

Structure (SMILES)	cytoprotection against H2O2-mediated toxicity (by-product control) (H9c2 cardiac myoblasts [1])	toxicity toward FA fibroblasts [2]	cytoprotection against H2O2 stress (FA fibroblasts (GM04078))	toxicity toward H9c2 cells (H9c2 cardiac myoblasts [3])	t1/2 of decomposition in the presence of thiol [4] [min]
Oc1ccccc1 [Precursor 4a, phenol]	no protective effect	do not show toxicity	ineffective	no toxicity	
COC(=O)C(NC(C)=O)C(C)(C)SSC(=O)OCc1ccccc1 (centres unmarked) [Precursor 8, Methyl 2-acetamido-3-(((benzyloxy)carbonyl)disulfaneyl)-3-methylbutanoate]					4.0 ± 0.7
